Measured values as given in ChEMBL document CHEMBL1201862, “PubChem BioAssay data set” (2004).
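Tested at 5 concentrations; 48 h exposure; 96-well plates; endpoints linearly interpolated, else capped at highest concentration. GI50 = concentration required for 50% inhibition of growth.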 The source made the active and inactive calls. Cut-off read from the data, not from the text of the source: active = GI50 up to about 1.1 µM and inactive = higher.

Columns and labels:
Test in all cases: DTP human tumour cell line panel, 48 h
BT-549 = test system: BT-549
Hs-578T = test system: Hs-578T
DMS-114 = test system: DMS-114
M19-MEL = test system: M19-MEL
SNB-78 = test system: SNB-78
XF498 = test system: XF498
DMS-273 = test system: DMS-273
HOP-18 = test system: HOP-18

| SMILES | GI50 (BT-549) | GI50 (Hs-578T) | further results |
| --- | --- | --- | --- |
| CCOC(=O)C1=C(c2ccccc2)C12N(Cc1ccccc1)C(=O)C2(c1ccccc1)c1ccccc1 (centres undefined) | 24.8 µM (inactive) | 36.9 µM (inactive) | – |
| COC(=O)[C@@H](N1C(=O)c2ccccc2C1=O)C1(C)CC(Cl)=NO1 (some centres undefined) | 42.7 µM (inactive) | 29.8 µM (inactive) | – |
| COc1ccc2c(c1)C(OC)C1c3c(cc4c(c3-2)OCO4)CCN1C (centres undefined) | 2.28 µM (inactive) | 1.96 µM (inactive) | – |
| COC(=N)c1ncn(Cc2ccccc2)c1N | – | > 100 µM (inactive) | – |
| COc1ccc2nc(-c3ccc(O)cc3)sc2c1 | 18.7 µM (inactive) | – | – |
| CC1=NN(C(=O)c2ccc(Cl)cc2)C(=O)/C1=C/c1cccc([N+](=O)[O-])c1 | – | – | GI50 (DMS-114): > 100 µM (inactive); GI50 (M19-MEL): > 100 µM (inactive); GI50 (SNB-78): > 100 µM (inactive); GI50 (XF498): > 100 µM (inactive) |
| O=[N+]([O-])c1cccc2nccc(NCCCO)c12 | 8.93 µM (inactive) | 13.1 µM (inactive) | – |
| N#Cc1c2c(c(N)oc1=O)C(c1ccccc1)CC(=O)N2 (centres undefined) | > 100 µM (inactive) | > 100 µM (inactive) | – |
| CCOC(=O)/C(C#N)=C(N)/C(=N\Nc1cccc(C(F)(F)F)c1)C(=O)OCC | – | – | GI50 (DMS-114): > 100 µM (inactive); GI50 (DMS-273): > 100 µM (inactive); GI50 (HOP-18): > 100 µM (inactive); GI50 (M19-MEL): > 100 µM (inactive); GI50 (SNB-78): > 100 µM (inactive) |
| CC[C@]1(Cc2ccc(OC)c(OC)c2)C=[N+]([O-])O[C@H](OCc2ccccc2)[C@@H]1OC(C)=O | – | 20.4 µM (inactive) | – |
| COc1cc(CCN(C)C)cc(OC)c1OC | > 100 µM (inactive) | > 100 µM (inactive) | – |
| O=C(N/N=C(COc1ccccc1Cl)\N=C\c1cccnc1)c1ccncc1 | > 100 µM (inactive) | 66.2 µM (inactive) | – |
| c1ccc2c(CN3CCN(Cc4c[nH]c5ccccc45)CC3)c[nH]c2c1 | 22 µM (inactive) | 15.9 µM (inactive) | – |
| COc1ccc2cc(C(C)C(=O)N3C(=O)OCC3(C)C)ccc2c1 (centres undefined) | > 100 µM (inactive) | – | – |
| Oc1ccc(O)c(CNc2ccccc2)c1 | 7.93 µM (inactive) | 25.5 µM (inactive) | – |
| CCCC(=O)Nc1cc(C(=O)N2C[C@H]3C[C@@]34C2=CC(=O)c2[nH]cc(C)c24)n(COC)c1 | 0.253 µM (active) | 0.512 µM (active) | – |
| O=C(Oc1ccc(S(=O)(=O)F)cc1F)c1ccccc1Cl | 39.2 µM (inactive) | 25.2 µM (inactive) | – |
| c1cc(Sc2nc(Sc3ccncc3)nc(Sc3ccncc3)n2)ccn1 | > 100 µM (inactive) | > 100 µM (inactive) | – |
| CC(C)c1ccc2c(c1)C=C1OC(=O)[C@]3(C)CCC[C@@]2(C)C13 (some centres undefined) | > 100 µM (inactive) | > 100 µM (inactive) | – |

| SMILES | GI50 (BT-549) | GI50 (Hs-578T) | further results |
| --- | --- | --- | --- |
| Cc1ccc2c(c1)C1C(CO2)C(c2ccccc2)=NN1c1ccccc1 (centres undefined) | – | – | GI50 (DMS-114): > 100 µM (inactive); GI50 (DMS-273): > 100 µM (inactive); GI50 (HOP-18): > 100 µM (inactive); GI50 (M19-MEL): > 100 µM (inactive); GI50 (SNB-78): > 100 µM (inactive) |
| CC(C)(C)N(Cc1ccc2c(c1)OCO2)C(=O)/C=C\[S+]([O-])c1ccccc1 (centres undefined) | 2.43 µM (inactive) | 2.33 µM (inactive) | – |
| [O-][Cl+3]([O-])([O-])O.c1ccc(C2=NN2c2ccccc2)cc1 | > 100 µM (inactive) | – | – |
| O=C(O)CCC1(c2ccccc2)NC(=O)NC1=O (centres undefined) | > 100 µM (inactive) | > 100 µM (inactive) | – |
| CC(=O)c1sc2n(C)c(=O)c3ccccc3[n+]2c1C | > 100 µM (inactive) | > 100 µM (inactive) | – |
| CC1=CC(=O)N(n2c(C)n[nH]c2=O)C1=O | > 100 µM (inactive) | > 100 µM (inactive) | – |
| COc1cc([C@@H]2c3cc4c(cc3[C@H](OC3OC5COC(C(C)C)OC5C(O)C3O)C3COC(=O)[C@@H]32)OCO4)cc(OC)c1OC (some centres undefined) | 5.52 µM (inactive) | 3.17 µM (inactive) | – |
| COc1ccc(N2C(=O)C3ON(C(C(N)=O)c4ccccc4)C(c4cc5ccccc5c5ccccc45)C3C2=O)cc1 (centres undefined) | 24.7 µM (inactive) | > 50 µM (inactive) | – |
| COC(=O)C(C(=O)C(=O)NC1Nc2ccc(C)cc2S1)c1nc2ccc(Cl)cc2nc1O (centres undefined) | > 100 µM (inactive) | > 100 µM (inactive) | – |
| O=C1C(Cl)=C(OCCCl)C(=O)c2c(O)ccc(O)c21 | 13.3 µM (inactive) | – | – |
| O=C1OC2(c3ccc(O)cc3Oc3cc(O)ccc32)c2c1c(-c1ccccc1)c(-c1ccccc1)c(-c1ccccc1)c2-c1ccccc1 | 23.6 µM (inactive) | 22 µM (inactive) | – |
| COc1cc(/C=C2\CCc3ccccc3C2=O)ccc1O | 17.9 µM (inactive) | 29 µM (inactive) | – |
| CC(=O)Nc1ccc(-c2nnc(SCC(=O)Nc3ccccc3)o2)cc1 | – | – | GI50 (DMS-114): 39.8 µM (inactive); GI50 (DMS-273): 50.6 µM (inactive); GI50 (HOP-18): > 100 µM (inactive); GI50 (M19-MEL): 74.8 µM (inactive); GI50 (SNB-78): 80 µM (inactive) |
| COC(=O)C1(CCCCCBr)CCCCCCCCCCC1=O (centres undefined) | – | > 100 µM (inactive) | – |
| N#C/C(=C/NC(=S)NCc1ccccc1)C(N)=O | – | > 100 µM (inactive) | – |
| COC(=O)C1CC2(c3ccccc3)C(=O)c3ccccc3N2O1 (centres undefined) | – | – | GI50 (DMS-114): 46.6 µM (inactive); GI50 (DMS-273): 31.6 µM (inactive); GI50 (HOP-18): > 100 µM (inactive); GI50 (M19-MEL): 64.4 µM (inactive); GI50 (SNB-78): > 100 µM (inactive) |
| O=C(CSc1nc2ccc([N+](=O)[O-])cc2s1)c1ccc2ccccc2c1 | > 100 µM (inactive) | 89.5 µM (inactive) | – |
| O=C1N(CN2CCOCC2)CN(CN2CCOCC2)C(=O)N1Cc1ccccc1 | 21.6 µM (inactive) | – | – |
| CC1(C)OC(C(N)=O)=C(C(N)=O)O1 | – | – | GI50 (DMS-114): > 100 µM (inactive); GI50 (DMS-273): > 100 µM (inactive); GI50 (HOP-18): > 100 µM (inactive); GI50 (M19-MEL): > 100 µM (inactive); GI50 (XF498): > 100 µM (inactive) |
